In patent EP4364731A1, “COMPOSITION FOR USE IN THE TREATMENT OF DISRUPTED NASAL MUCOSA AND EPITHELIAL BARRIER” (Laboratorios Cinfa, S.A., priority 2022, dated 2024):

Legend:
Format in all cases: cell-based
[1] = test system: Human Nasal Epithelial Cells (HNEpC); assay: Re-epithelialization (scratch) assay; conditions: 0.5% compound separately (FIG. 2)
Protocol: (§1) In vitro studies were performed to assess the proliferation and re-epithelialization activity of compositions containing hyaluronic acid and xylitol as individual components and in combination. Three independent trials were carried out with 4 replicates per experimental trial.
(§2) Solutions in basal culture medium of hyaluronic acid (HA, White powder,CAS number 9067-32-7, MW: 1000-1400 kDa, Givaudan France SAS xylitol (Xyl,. White crystalline powder, CAS number 87-99-0 Roquette) or combinations of hyaluronic acid and xylitol at different concentrations were tested.
Human Nasal Epithelial Cells (HNEpC) from a primary cell line isolated from normal human nasal mucosa were purchased form PromoCell (ref: C-12620). The cell line was maintained in supplemented culture medium according to the supplier guidelines and was routinely grown as a monolayer in tissue culture grade flasks. When cells exceeded 70% confluence (but less than 90%), they were sub-cultured on new culture flasks. […]
Cells were seeded in both sides of inserts attached on culture wells and were incubated in supplemented medium at 37 °C and 5% CO2. […] The area of the scratch was calculated using ImageJ software. The percentage of scratch closure (re-epithelialization percentage) was calculated relative to the negative control, a condition in which cells were not treated with any product. […]

[2] = in vitro; conditions: human, nasal epithelial cells
Excerpt: Regarding hyaluronic acid, insolubility at concentrations above 0.5% w/v prevented the testing of higher concentrations. As for xylitol, a high in vitro cytotoxicity at concentrations above 0.5% w/v prevented the testing of higher concentrations.

[3] = test system: Human Nasal Epithelial Cells (HNEpC); assay: Proliferation assay (MTT); conditions: Epithelial cell, 24 hours
Protocol: as §1, §2
Human Nasal Epithelial Cells (HNEpC) from a primary cell line isolated from normal human nasal mucosa were purchased form PromoCell (ref: C-12620). The cell line was maintained in supplemented culture medium according to the supplier guidelines and was routinely grown as a monolayer in tissue culture grade flasks. When cells exceeded 70% confluence (but less than 90%), they were sub-cultured on new culture flasks. All the cell cultures were maintained in standard cell culture conditions (37 °C, 5% CO2 and 95% humidity).
MTT, a yellow tetrazole, is reduced to purple formazan by cell metabolic activity. This reduction is proportional to the amount of living cells in the well and, therefore, to cell proliferation over time. Cells cultured in 96-well plates were treated with the test compositions for 24 hours (37 °C, 5% CO2). After 24 hours of incubation, cells were washed with PBS and stained with MTT solution and incubated at 37 °C for 2 hours. At the end of this incubation period, the staining medium was removed and 100 µL of DMSO/well were added to solubilize the colored precipitate. The absorbance was read at 540 nm in the spectrophotometer plate reader. The cell proliferation percentage was calculated relative to the negative control, a condition in which cells were not treated with any product. Cells with treatments and negative control were cultured with basal medium. As positive control, cells were cultured in supplemented medium. The % of cell proliferation was calculated by the following formula: • % proliferation = AbT/AbC x 100 • AbT = absorbance at 540 nm after 24 hours of treatment • AbC = absorbance at 540 nm of the negative control (24 hours of cells growing in basal medium)

For OC[C@@H](O)[C@H](O)[C@@H](O)CO [Xyl, xylitol], the “scratch closure after 72 hours of exposure” value [1] was “did not”, the MCC [2] was greater than 5000 µg/mL and the activation at 0.125 % ([3]; 0.125% compound alone, read-out: increase of cell proliferation in relation to negative control) was 0%. For the same compound, the activation at 0.5 % ([3]; 0.5% compound alone, read-out: increase of cell proliferation in relation to negative control) was 0%, the activity at 0.125 % strength ([3]; basal medium, relative to negative control (100%), compound concentration 0.125 %w/v) was 99.9% and the activity at 0.5 % strength ([3]; basal medium, relative to negative control (100%), compound concentration 0.5 %w/v) was 98.2%.
